We go through ten compounds from ChEMBL document CHEMBL4038324, “Amidoalkylindoles as Potent and Selective Cannabinoid Type 2 Receptor Agonists with in Vivo Efficacy in a Mouse Model of Multiple Sclerosis” (J Med Chem, 2017).

In data set [1] the target is Cannabinoid receptor 1 (Rattus norvegicus, UniProt P20272). Description: Agonist activity at rat CB1 receptor expressed in mouse AtT20 cells by FLIPR membrane potential assay. In kind it is cell-based.
In data set [2] the target is T1, Cannabinoid receptor 2 (Homo sapiens, UniProt P34972). Briefly: Agonist activity at human N-terminal HA-tagged CB2 receptor expressed in mouse AtT20 cells by FLIPR membrane potential assay. Format: cell-based.
T1 sequence (P34972 whole entry): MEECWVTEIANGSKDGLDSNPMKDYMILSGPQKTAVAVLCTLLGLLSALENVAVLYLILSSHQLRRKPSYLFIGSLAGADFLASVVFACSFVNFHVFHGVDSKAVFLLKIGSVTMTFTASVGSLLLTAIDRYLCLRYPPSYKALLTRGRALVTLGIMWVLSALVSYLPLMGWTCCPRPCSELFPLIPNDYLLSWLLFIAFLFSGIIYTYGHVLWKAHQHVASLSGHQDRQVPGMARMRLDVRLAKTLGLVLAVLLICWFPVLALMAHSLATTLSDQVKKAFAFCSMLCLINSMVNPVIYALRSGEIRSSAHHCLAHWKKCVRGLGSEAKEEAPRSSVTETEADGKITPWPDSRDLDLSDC
Data set [3] addresses T1, Cannabinoid receptor 2. Description: Agonist activity at human CB2 receptor expressed in CHO cells assessed as induction of Ca2+ flux at 10 uM after 10 mins by Fluor-4 AM dye based assay. In kind it is functional, cell-based. (Calcium assays in cells follow changes in intracellular calcium, usually with a dye or a luminescent sensor.)
Data set [4] concerns the target T2, Cannabinoid receptor 1 (Homo sapiens, UniProt P21554). Description: Agonist activity at human CB1 receptor expressed in CHO cells assessed as induction of Ca2+ flux at 10 uM after 10 mins by Fluor-4 AM dye based assay. In kind it is cell-based.
Data set [5] addresses T1, Cannabinoid receptor 2. Description: Antagonist activity at human CB2 receptor expressed in CHO cells assessed as inhibition of CP55940-induced Ca2+ flux preincubated for 10 mins followed by agonist addition by Fluor-4 AM dye based assay. Format: functional, cell-based.
Data set [6] deals with T3, Cannabinoid receptor 1 (CB1) (Homo sapiens, UniProt P21554). Briefly: Antagonist activity at human CB1 receptor expressed in CHO cells assessed as inhibition of CP55940-induced Ca2+ flux at 10 uM preincubated for 10 mins followed by agonist addition by Fluor-4 AM dye based assay. Format: cell-based. The following applies: CHO cells expressing human CB1 receptor.
T3 sequence (P21554 whole entry): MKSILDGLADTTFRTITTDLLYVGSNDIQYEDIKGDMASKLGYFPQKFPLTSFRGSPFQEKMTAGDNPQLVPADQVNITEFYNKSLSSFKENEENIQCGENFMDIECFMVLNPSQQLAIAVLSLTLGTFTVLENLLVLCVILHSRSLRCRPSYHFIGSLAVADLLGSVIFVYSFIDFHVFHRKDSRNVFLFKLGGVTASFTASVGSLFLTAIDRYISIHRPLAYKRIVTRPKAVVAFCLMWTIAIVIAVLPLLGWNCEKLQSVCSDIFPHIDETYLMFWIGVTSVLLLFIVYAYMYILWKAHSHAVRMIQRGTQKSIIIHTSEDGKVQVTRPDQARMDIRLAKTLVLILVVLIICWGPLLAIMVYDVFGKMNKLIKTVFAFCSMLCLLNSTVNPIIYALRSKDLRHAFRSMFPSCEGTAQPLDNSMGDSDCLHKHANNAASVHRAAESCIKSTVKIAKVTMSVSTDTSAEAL
Data set [7] concerns the target T1, Cannabinoid receptor 2. Description: Agonist activity at human CB2 receptor expressed in CHO cells assessed as induction of Ca2+ flux after 10 mins by Fluor-4 AM dye based assay. Format: functional, cell-based.
For data set [8], the target named is T2, Cannabinoid receptor 1. Description: Agonist activity at human CB1 receptor expressed in CHO cells assessed as induction of Ca2+ flux after 10 mins by Fluor-4 AM dye based assay. Format: cell-based.
Data set [9] concerns the target T3, Cannabinoid receptor 1 (CB1). Description: Agonist activity at human CB1 receptor expressed in CHO cells assessed as induction of Ca2+ flux after 10 mins by Fluor-4 AM dye based assay relative to CP55940. In kind it is cell-based. The following applies: CHO cells expressing human CB1 receptor.
In data set [10] the target is T1, Cannabinoid receptor 2. Briefly: Antagonist activity at human CB2 receptor expressed in CHO cells assessed as inhibition of CP55940-induced Ca2+ flux at 10 uM preincubated for 10 mins followed by agonist addition by Fluor-4 AM dye based assay. Format: functional, cell-based.
The target in data set [11] is T1, Cannabinoid receptor 2. Briefly: Agonist activity at human CB2 receptor expressed in CHO cells assessed as induction of Ca2+ flux after 10 mins by Fluor-4 AM dye based assay relative to CP55940. Format: functional, cell-based.
Data set [12] concerns Mus musculus. Briefly: In vivo partial agonist activity at CB2 receptor in EAE C57BL/6 mouse model assessed as reduction in clinical signs at 10 to 30 mg/kg, ip administered from day 3 after immunization with MOG until day 27. Format: functional, organism-based.
Data set [13] is described as follows: Half life in C57 mouse at 10 mg/kg, ip measured up to 2 hrs by LC-MS/MS analysis. The following applies: in vivo. Format: ADME, organism-based.
Data set [14] concerns Mus musculus. Briefly: In vivo partial agonist activity at CB2 receptor in EAE C57BL/6 mouse model assessed as reduction in leukocyte infiltration in white matter region at 10 to 30 mg/kg, ip administered from day 3 after immunization with MOG until day 19 by H and E staining based assay. Format: functional, organism-based.
In data set [15] the target is T1, Cannabinoid receptor 2. Description: Agonist activity at human CB2 receptor expressed in CHO cells assessed as inhibition of forskolin-induced cAMP accumulation preincubated for 20 mins followed by forskolin addition measured after 30 mins by HTRF assay. In kind it is functional, cell-based. A general note: Cyclic AMP is a second messenger, typically raised through Gs and lowered through Gi signalling.

Data set [16] is described as follows: AUC (0 to t) in C57 mouse at 10 mg/kg, ip measured up to 2 hrs by LC-MS/MS analysis. In kind it is ADME, organism-based. Set-up: dose 10 mg/kg, time < 2 hr, route intraperitoneal. The following applies: in vivo.
In data set [17] the test system is Mus musculus. Briefly: AUMC (0 to t) in C57 mouse at 10 mg/kg, ip measured up to 2 hrs by LC-MS/MS analysis. In kind it is ADME, organism-based. The following applies: in vivo.
Data set [18] concerns Mus musculus. Briefly: In vivo partial agonist activity at CB2 receptor in EAE C57BL/6 mouse model assessed as reduction in extensive demyelination in white matter at 10 to 30 mg/kg, ip administered from day 3 after immunization with MOG until day 19 by Luxol fast blue staining based assay. In kind it is functional, organism-based.
The nature of data set [19]: Tmax in C57 mouse at 10 mg/kg, ip measured up to 2 hrs by LC-MS/MS analysis. In kind it is ADME, organism-based. The following applies: in vivo.
Data set [20] relates to Mus musculus. Briefly: AUMC (0 to infinity) in C57 mouse at 10 mg/kg, ip measured up to 2 hrs by LC-MS/MS analysis. Format: ADME, organism-based. The following applies: in vivo.
The nature of data set [21]: Ratio of Cmax in C57 mouse at 10 mg/kg, ip to EC50 for human CB2 receptor expressed in CHO cells assessed as induction of Ca2+ flux.
A short description of data set [22]: Cmax in C57 mouse at 10 mg/kg, ip measured up to 2 hrs by LC-MS/MS analysis. Format: ADME, organism-based. The following applies: in vivo. On the set-up: dose 10 mg/kg, route intraperitoneal.
Data set [23] is described as follows: Elimination rate constant in C57 mouse at 10 mg/kg, ip measured up to 2 hrs by LC-MS/MS analysis. The following applies: in vivo. In kind it is ADME, organism-based.
A short description of data set [24]: AUC (0 to infinity) in C57 mouse at 10 mg/kg, ip measured up to 2 hrs by LC-MS/MS analysis. Set-up: dose 10 mg/kg, time infinity, route intraperitoneal. The following applies: in vivo. Format: ADME, organism-based.
Data set [25] can be described thus: MRT in C57 mouse at 10 mg/kg, ip measured up to 2 hrs by LC-MS/MS analysis. In kind it is ADME, organism-based. The following applies: in vivo.

Activity calls are given as the source filed them. The rule behind the calls is not given here.

Chain of Cannabinoid receptor 1 (Rattus norvegicus, UniProt P20272) (P20272 whole entry): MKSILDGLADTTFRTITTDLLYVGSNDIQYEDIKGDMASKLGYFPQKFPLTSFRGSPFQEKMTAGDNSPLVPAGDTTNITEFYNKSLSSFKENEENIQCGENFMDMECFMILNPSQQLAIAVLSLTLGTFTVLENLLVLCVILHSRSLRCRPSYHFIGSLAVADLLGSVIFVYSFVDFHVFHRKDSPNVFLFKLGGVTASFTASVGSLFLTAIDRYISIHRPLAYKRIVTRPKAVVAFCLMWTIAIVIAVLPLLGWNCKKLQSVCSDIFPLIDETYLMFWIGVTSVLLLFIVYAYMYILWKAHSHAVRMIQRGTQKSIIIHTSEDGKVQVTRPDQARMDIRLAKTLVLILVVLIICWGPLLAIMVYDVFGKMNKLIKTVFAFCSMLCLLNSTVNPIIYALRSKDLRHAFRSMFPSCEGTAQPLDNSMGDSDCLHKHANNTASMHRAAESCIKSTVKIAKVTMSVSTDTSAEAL
T2 sequence (P21554 whole entry): as the sequence (P21554 whole entry) above

Take `CCCCCn1cc(C(=O)C23CC4CC(CC(C4)C2)C3)c2ccccc21`: the EC50 lay within 35 to 40 nM on Cannabinoid receptor 1 [1] and 29 to 89 nM at Cannabinoid receptor 2 [2].

Turning to `CSc1cccc2c(C(=O)NC34CC5CC(CC(C5)C3)C4)cn(CCN3CCOCC3)c12`, the Activity at Cannabinoid receptor 2 [3] and on Cannabinoid receptor 1 [4] was < 50% in each case. Moreover, the IC50 on Cannabinoid receptor 2 [5] turned out to be 28 nM. Also, the inhibition at 10 min, 10 µM in data set [6] was < 50%. In addition, the EC50 on Cannabinoid receptor 2 [7] was > 100000 nM.

On to `CCCCCn1cc(C(=O)CC23CC4CC(CC(C4)C2)C3)c2ccccc21`, for which the EC50 at Cannabinoid receptor 1 [1] is 35 to 40 nM; on Cannabinoid receptor 2 [2], 29 to 89 nM.

As for `O=C(NC12CC3CC(CC(C3)C1)C2)c1cn(CCN2CCOCC2)c2ccccc12`, the EC50 was determined as 3300 nM on Cannabinoid receptor 1 [8] and 59 nM on Cannabinoid receptor 2 [7]. In addition, the Emax at 10 min in [9] was determined as 75%. Besides, the inhibition on Cannabinoid receptor 2 [10] is < 50%. For the same compound, the IC50 on Cannabinoid receptor 2 [5] was > 100000 nM. In addition, the inhibition at 10 min, 10 µM in data set [6] is < 50%. Moreover, the Emax at Cannabinoid receptor 2 [11] is 56.7%.

With `Cc1cccc2c(C(=O)NC34CC5CC(CC(C5)C3)C4)cn(CCN3CCOCC3)c12`, the Activity on Cannabinoid receptor 2 [3] was < 50%. Further, on Cannabinoid receptor 1 [8], the EC50 came out at 6700 nM. Also, in data set [9], the Emax at 10 min amounted to 63.3%. Besides, the inhibition on Cannabinoid receptor 2 [10] is < 50%. Moreover, the inhibition at 10 min, 10 µM in data set [6] is < 50%. On Cannabinoid receptor 2 [11], the Emax entry was “inactive”.

Regarding `O=C(NC12CC3CC(CC(C3)C1)C2)c1cc2ccccc2n1CCCCO`, the result in the data set with Mus musculus [12], in the data set with Mus musculus [14] and with Mus musculus [18] was Active. For the same compound, the half-life in data set [13] is 1.04 h. Besides, the figures for the EC50 on Cannabinoid receptor 2 [15] and on Cannabinoid receptor 2 [7] were 142 nM and 120 nM, respectively. Further, the AUC(0-t) at 2 h in [16] worked out at 317 ng·h/mL. The compound also had an AUMCt in the data set with Mus musculus [17] of 248 hr.hr.ng/ml. Besides, the inhibition on Cannabinoid receptor 2 [10] was < 50%. Further, on Cannabinoid receptor 1 [4], the Activity is listed as < 50%. Also, in [19], the Tmax worked out at 0.25 h. In addition, the inhibition at 10 min, 10 µM in data set [6] is < 50%. Moreover, in the data set with Mus musculus [20], the AUMC came out at 637 hr.hr.ng/ml. Besides, in data set [21], the Ratio is reported as 8. Moreover, the concentration in [22] peaked (Cmax) at 350 ng/mL. The k el at 2 h in data set [23] was 0.000189 s⁻¹. This compound came in with a total exposure AUC(0-inf) in [24] of 428 ng·h/mL. Moreover, the MRT in data set [25] was 1.51 h. For the same compound, at Cannabinoid receptor 2 [11], the Emax worked out at 85%.

`O=C(NC12CC3CC(CC(C3)C1)C2)c1cn(CCCCCO)c2ccccc12`: the EC50 at Cannabinoid receptor 1 [8] stood at 4100 nM; at Cannabinoid receptor 2 [7], 62 nM. Besides, the Emax at 10 min in data set [9] turned out to be 76.7%. Besides, the inhibition at Cannabinoid receptor 2 [10] is < 50%. In addition, in data set [6], the inhibition at 10 min, 10 µM is < 50%. Besides, the Emax at Cannabinoid receptor 2 [11] came to 63.3%.

For the compound `COc1cccc2c(C(=O)NC34CC5CC(CC(C5)C3)C4)cn(CCN3CCOCC3)c12`, the Activity at Cannabinoid receptor 2 [3] and on Cannabinoid receptor 1 [4] was < 50% throughout. The IC50 on Cannabinoid receptor 2 [5] came to 16 nM. Besides, the inhibition at 10 min, 10 µM in data set [6] is < 50%. Further, the EC50 at Cannabinoid receptor 2 [7] is > 100000 nM.

Turning to `CCCCCn1cc(C(=O)NC23CC4CC(CC(C4)C2)C3)c2ccccc21`, the EC50 on Cannabinoid receptor 1 [8] came to 39 nM; on Cannabinoid receptor 1 [1] it was 34 nM; at Cannabinoid receptor 2 [7], 59 nM; at Cannabinoid receptor 2 [2], 29 nM. Besides, in data set [9], the Emax at 10 min was found to be 68.3%. At Cannabinoid receptor 2 [10], the inhibition was < 50%. Further, the inhibition at 10 min, 10 µM in [6] was < 50%. Besides, the Emax on Cannabinoid receptor 2 [11] was 66.3%.

In the case of `O=C(NC12CC3CC(CC(C3)C1)C2)c1cn(CC2CCOCC2)c2ccccc12`, the results for the EC50 at Cannabinoid receptor 1 [8] and at Cannabinoid receptor 2 [7] were 84 nM and 38 nM, respectively. In [9], the Emax at 10 min is 133%. For the same compound, on Cannabinoid receptor 2 [10], the inhibition is < 50%. In [6], the inhibition at 10 min, 10 µM is < 50%. For the same compound, the Emax at Cannabinoid receptor 2 [11] is 76.7%.

The EC50 is the midpoint of the concentration-response curve. The term IC50 denotes the point on the concentration scale where inhibition reaches its midpoint. As usually defined, the inhibition is the percentage by which the read-out fell short of the control. As usually defined, the Emax is the maximal effect, on the per cent scale that the assay sets. In general, half-life refers to the time in which the quantity being followed falls by half. Read a high half-life as slow loss. Broadly, the AUC(0-t) is exposure summed from dosing to a finite time, without extrapolation to infinity. Low readings indicate less exposure, high ones more exposure. Usually Tmax stands for the time at which the peak concentration occurs. The Cmax is the maximum level reached in the sampled fluid or tissue. Broadly, the AUC(0-inf) is total exposure, with the tail of the curve extrapolated. A high value points to high exposure. The term MRT denotes the average time that molecules of a dose stay in the body.
